Laboratory results: article PMC3634465, “New Anti-Inflammatory Aromatic Components from Antrodia camphorata” (International Journal of Molecular Sciences, 2013)
≈ marks a conversion by molar mass, not a printed value.

Experiments:
[1] = test system: LPS-induced NO production in RAW264.7 macrophages; experiment: LPS-induced NO production in macrophages (nitrite, Griess reaction); assay type: cell-based, murine; conditions: LPS 100 ng/mL, 24 h; for IC50: Mus musculus, RAW264.7, non-linear regression, read-out: IC50 of inhibition of LPS-induced NO production; for NO level: LPS alone 25.3 ± 3.0, control 2.5 ± 0.2
Protocol: (§1) A murine macrophage cell line, RAW264.7 (BCRC No. 60001), was purchased from the Bioresources Collection and Research Center (BCRC, Hsinchu, Taiwan) of the Food Industry Research and Development Institute (Hsinchu, Taiwan). Cells were cultured in plastic dishes containing Dulbecco’s Modified Eagle Medium (DMEM, Sigma, St. Louis, MO, USA) supplemented with 10% fetal bovine serum (FBS, Sigma) in a CO2 incubator (5% CO2 in air) at 37 °C and subcultured every 3 days at a dilution of 1:5 using 0.05% trypsin-0.02% EDTA in Ca^2+-, Mg^2+-free phosphate-buffered saline (DPBS).
NO production was indirectly assessed by measuring the nitrite levels in the cultured media and serum determined by a colorimetric method based on the Griess reaction. The cells were incubated with different concentrations of samples in the presence of LPS (100 ng/mL) at 37 °C for 24 h. Then, cells were dispensed into 96-well plates, and 100 μL of each supernatant was mixed with the same volume of Griess reagent (1% sulfanilamide, 0.1% naphthyl ethylenediamine dihydrochloride and 5% phosphoric acid) and incubated at room temperature for 10 min; the absorbance was measured at 540 nm with a Micro-Reader (Molecular Devices).
IC50 values were estimated using a non-linear regression algorithm (Sigma Plot 8.0; SPSS Inc., Chicago, IL, USA). Statistical evaluation was carried out by one-way analysis of variance (ANOVA, followed by Scheffe’s multiple range tests).

[2] = Cell viability (MTT) in the presence of LPS; assay type: cell-based, murine; conditions: mouse, RAW264.7 macrophage cells, 100 ng/mL LPS, mean ± SD, read-out: Cell viability (% of control)
Protocol: as §1
Cells (2 × 10^5) were cultured in 96-well plate containing DMEM supplemented with 10% FBS for 1 day to become nearly confluent. Then, cells were cultured with compounds 1–5 in the presence of 100 ng/mL LPS (lipopolysaccharide) (Eschericha coli 026:B6; Sigma-Aldrich, St. Louis, Mo) for 24 h. After that, the cells were washed twice with DPBS and incubated with 100 μL of 0.5 mg/mL MTT for 2 h at 37 °C testing for cell viability. The medium was then discarded, and 100 μL dimethyl sulfoxide (DMSO) was added. After 30-min incubation, absorbance at 570 nm was read using a microplate reader (Molecular Devices, Sunnyvale, CA, USA).

IC50 [1] | SMILES | NO level ([1]; dose 25 μg/mL) | viability at 24 h, 25 μg/mL [2] | viability at 24 h, 50 μg/mL [2] | NO level ([1]; dose 0.312 μg/mL) | NO level ([1]; dose 0.625 μg/mL) | NO level ([1]; dose 1.25 μg/mL) | NO level ([1]; dose 2.5 μg/mL) | viability at 24 h, 0.312 μg/mL [2] | viability at 24 h, 0.625 μg/mL [2] | viability at 24 h, 1.25 μg/mL [2] | viability at 24 h, 2.5 μg/mL [2] | viability at 24 h, 5 μg/mL [2] | further results
18.8 ± 0.6 µg/mL (≈ 51.9 µM) | COc1c(C)c(-c2c(C)c(OC)c(O)c3c2OCO3)c2c(c1O)OCO2 [Compound 3, 4,4′-dihydroxy-3,3′-dimethoxy-2,2′-dimethyl-5,6,5′,6′-bimethylenedioxybiphenyl] | 12.1 ± 0.6 µM | 91 ± 7.7% | 64.8 ± 2.2% | – | – | – | – | – | – | – | – | – | NO level ([1]; dose 3.12 μg/mL): 13.7 ± 0.1 µM; NO level ([1]; dose 6.25 μg/mL): 13.4 ± 0.4 µM; NO level ([1]; dose 12.5 μg/mL): 13.2 ± 0.1 µM; viability at 24 h, 3.12 μg/mL ([2]; dose 3.12 μg/mL): 95.1 ± 2.9%; viability at 24 h, 6.25 μg/mL ([2]; dose 6.25 μg/mL): 93.1 ± 2.7%; viability at 24 h, 12.5 μg/mL ([2]; dose 12.5 μg/mL): 93 ± 2.6%
1.8 ± 0.2 µg/mL (≈ 8.1 µM) | C=C(C)c1c(OC)c(O)c(C)c2c1OCO2 [Compound 1, 3-isopropenyl-2-methoxy-6-methyl-4,5-methylenedioxyphenol] | – | – | – | 14.5 ± 2.2 µM | 14.1 ± 1.5 µM | 13.0 ± 1.5 µM | 12.0 ± 1.7 µM | 92 ± 3.3% | 91 ± 3.7% | 90.4 ± 2.4% | 87.3 ± 2.3% | 65.5 ± 1.7% | –
– | COc1c(C)cc(-c2c(O)c(C)c(OC)c3c2OCO3)c2c1OCO2 [Compound 2, 2-hydroxy-4,4′-dimethoxy-3,3′-dimethyl-5,6,5′,6′-bimethylenedioxybiphenyl] | – | – | – | 16.4 ± 2.4 µM | 16.1 ± 1.3 µM | 15.7 ± 2.0 µM | 15.5 ± 1.9 µM | 98 ± 1.5% | 96.6 ± 7.6% | 96.6 ± 2.2% | 92.7 ± 1.3% | 71.4 ± 2.2% | –
– | COc1ccc2c(c1)c(CC(=O)O)c(C)n2C(=O)c1ccc(Cl)cc1 [Indomethacin, indomethacin, reference compound] | 19.2 ± 0.6 µM | 96.2 ± 1.1% | 94.8 ± 1.3% | – | – | – | – | – | – | – | – | – | NO level ([1]; dose 50 μg/mL): 14.3 ± 0.8 µM
0.8 ± 0.3 µg/mL (≈ 4.39 µM) | COc1c(C)cc(O)c2c1OCO2 [Compound 5, 2,3-methylenedioxy-4-methoxy-5-methylphenol] | – | – | – | 15.2 ± 1.4 µM | 12.8 ± 1.9 µM | 12.1 ± 1.6 µM | 10.4 ± 1.3 µM | 93.8 ± 2.9% | 88.5 ± 1.5% | 85 ± 2.9% | 83.8 ± 1.9% | 82.4 ± 2.7% | NO level ([1]; dose 5 μg/mL): 10.0 ± 2.2 µM
– | COc1cc(C)c(OC)c(O)c1OC [Compound 4, 2,3,6-trimethoxy-5-methylphenol] | – | – | – | 20.6 ± 1.2 µM | 19.4 ± 2.0 µM | 18.3 ± 0.3 µM | 13.6 ± 0.6 µM | 97 ± 1.1% | 96.2 ± 2.2% | 95 ± 2.1% | 94.6 ± 1.6% | 69.3 ± 2.1% | –
